# Data: ChEMBL document CHEMBL3867484, “3D-QSAR studies of 3-(3,4-dihydroisoquinolin-2(1H)-ylsulfonyl)benzoic acids as AKR1C3 inhibitors: Highlight the importance of molecular docking in conformation generation” (Bioorg Med Chem Lett, 2016)
# Molecular target: T1, Aldo-keto reductase family 1 member C3 (Homo sapiens, UniProt P42330)
# T1 sequence (P42330 whole entry): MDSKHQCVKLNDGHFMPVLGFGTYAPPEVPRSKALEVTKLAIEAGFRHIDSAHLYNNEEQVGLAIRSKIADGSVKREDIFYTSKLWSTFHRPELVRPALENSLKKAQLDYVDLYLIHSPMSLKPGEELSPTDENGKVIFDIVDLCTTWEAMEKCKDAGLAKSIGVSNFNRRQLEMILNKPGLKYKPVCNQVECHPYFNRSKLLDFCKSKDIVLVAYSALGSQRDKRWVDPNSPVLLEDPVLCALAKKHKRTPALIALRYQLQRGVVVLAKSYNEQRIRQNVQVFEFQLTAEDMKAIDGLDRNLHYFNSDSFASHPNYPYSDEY
# Test: Inhibition of human recombinant His-tagged AKR1C3 expressed in Escherichia coli BL21 (DE3) cells using 8-Acetyl-2,3,5,6-tetrahydro-1H,4H-11-oxa-3a-aza-benzo[de]anthracen-10-one as substrate after 1 hr in presence of NADPH by fluorescence assay
# Conditions: read-out: IC50
row,IC50 [nM],SMILES
1,390,O=C(O)c1cccc(S(=O)(=O)C2CC=CCC2)c1 (stereo not drawn)
2,78,O=C(NN1CCOCC1)c1cccc(S(=O)(=O)N2CCc3ccccc3C2)c1
3,1310,O=C(O)c1cccc(S(=O)(=O)N2CCc3ccc(C#Cc4ccc(C(F)(F)F)cc4)cc3C2)c1
4,25,O=C(O)c1cccc(S(=O)(=O)C2CCc3sccc3C2)c1 (stereo not drawn)
5,42,CN1CC(c2ccc(S(=O)(=O)N3CCc4ccccc4C3)cc2)CC1=O (stereo not drawn)
6,450,O=C(NN1CCSCC1)c1cccc(S(=O)(=O)N2CCc3ccccc3C2)c1

# Same assay, conditions: read-out: pIC50 (converted)
row,IC50 [nM],SMILES
1,31.6,O=C(O)[C@@H]1CCCN(S(=O)(=O)c2ccc3ccccc3c2)C1
2,6.03,O=C(O)c1cccc(S(=O)(=O)N2CCc3cc(Br)ccc3C2)c1
